The values that follow come from ChEMBL document CHEMBL4715932, “Positional Isomers of Biphenyl Antimicrobial Peptidomimetic Amphiphiles” (ACS Med Chem Lett, 2021).

Some results are limits rather than exact numbers.

In series [1] the test system is Staphylococcus aureus. Put plainly: Antibacterial activity against Staphylococcus aureus ATCC 29213 assessed as inhibition of growth visually by CLSI method. In kind it is functional.
Series [2] deals with Staphylococcus aureus. Description: Antibacterial activity against methicillin-resistant Staphylococcus aureus NCTC 10442 assessed as inhibition of growth visually by CLSI method. In kind it is functional.
The subject of series [3] is Staphylococcus aureus. Description: Antibacterial activity against vancomycin intermediate susceptibility Staphylococcus aureus Mu50 assessed as inhibition of growth visually by CLSI method. The class given is functional.
Series [4] concerns Enterococcus faecalis. Put plainly: Antibacterial activity against Enterococcus faecalis ATCC 29212 assessed as inhibition of growth visually by CLSI method. The class given is functional.
Series [5] has as its system Enterococcus faecalis. Put plainly: Antibacterial activity against vancomycin-resistant Enterococcus faecalis ATCC 51299 assessed as inhibition of growth visually by CLSI method. The class given is functional.
For a further series, the system named is Streptococcus pneumoniae. Put plainly: Antibacterial activity against Streptococcus pneumoniae ATCC 49619 assessed as inhibition of growth visually by CLSI method. The class given is functional.
Series [6] deals with Escherichia coli. Description: Antibacterial activity against Escherichia coli ATCC 10418 assessed as inhibition of growth visually by CLSI method. In kind it is functional.
The test system of series [7] is Clostridioides difficile. Description: Antibacterial activity against Clostridioides difficile ATCC 700057 assessed as inhibition of growth visually preincubated for 2 to 4 hrs measured after 48 hrs by CLSI method. The class given is functional. The conditions noted are these: time hrs <=52.
Series [8] concerns Clostridioides difficile. Put plainly: Antibacterial activity against Clostridioides difficile NSW 132 (RT027) assessed as inhibition of growth visually preincubated for 2 to 4 hrs measured after 48 hrs by CLSI method. The class given is functional. The conditions noted are these: time hrs <=52.
In series [9] the test system is Staphylococcus aureus. Put plainly: Antimicrobial activity against methicillin resistant Staphylococcus aureus ATCC 43300 assessed as growth inhibition incubated for 18 hrs. The class given is functional.
Another series has as its system Pseudomonas aeruginosa. Put plainly: Antimicrobial activity against Pseudomonas aeruginosa ATCC 27853 assessed as growth inhibition incubated for 18 hrs. The class given is functional.
The test system of a further series is Klebsiella pneumoniae. Description: Antimicrobial activity against multidrug-resistant Klebsiella pneumoniae ATCC 700603 assessed as growth inhibition incubated for 18 hrs. In kind it is functional.
Another series has as its system Acinetobacter baumannii. Put plainly: Antimicrobial activity against Acinetobacter baumannii ATCC 19606 assessed as growth inhibition incubated for 18 hrs. In kind it is functional.
The subject of series [10] is Escherichia coli. Put plainly: Antimicrobial activity against Escherichia coli ATCC 25922 assessed as growth inhibition incubated for 18 hrs. The class given is functional.
Another series concerns Candida albicans. Put plainly: Antifungal activity against Candida albicans ATCC 90028 assessed as growth inhibition incubated for 36 hrs. In kind it is functional. The settings on record: 28A ATCC 90028.
Another series deals with Cryptococcus neoformans. Description: Antifungal activity against Cryptococcus neoformans H99 ATCC 208821 assessed as growth inhibition incubated for 36 hrs. The class given is functional. The settings on record: var. grubii H99 ATCC 208821.
The nature of series [11]: Cytotoxicity against human HEK-293 cells incubated for 23 hrs by CO-ADD method. In kind it is cell-based, HEK293.
Series [12] in a line: Hemolytic activity in human RBC assessed as hemolysis incubated for 1 hr by CO-ADD method. The class given is ADME, cell-based, Erythrocyte. The settings on record: red blood cells (erythrocytes).
Series [13] can be described thus: Hemolytic activity in sheep RBC assessed as hemolysis at 5 microg/ml incubated for 2 hrs by CO-ADD method. The conditions noted are these: red blood cells (erythrocytes), at 5 µg/mL, read-out: Activity. In kind it is ADME, cell-based, Ovis aries, Erythrocyte.
Series [14] is described as follows: Hemolytic activity in sheep RBC assessed as hemolysis at 50 microg/ml incubated for 2 hrs. In kind it is ADME, cell-based, Ovis aries, Erythrocyte. The settings on record: red blood cells (erythrocytes), at 50 µg/mL, read-out: Activity.
The nature of series [15]: Cytotoxicity against human HEK-293 cells assessed as maximal inhibition at <= 32 ug/ml incubated for 23 hrs by CO-ADD method. The class given is cell-based, HEK293. The conditions noted are these: dose <=32 µg/ml, read-out: Imax.
Series [16] in a line: Hemolytic activity in human RBC assessed as maximal hemolysis at <= 32 ug/ml incubated for 1 hr by CO-ADD method. The settings on record: red blood cells (erythrocytes), dose <=32 µg/ml, read-out: Activity. The class given is cell-based, Erythrocyte.

What is called MIC is the lowest concentration found to suppress growth. For orientation: MIC80 means the lowest concentration that inhibits either 80% of growth or 80% of the strains tested, depending on the study. For orientation: CC50 means the concentration giving 50% cytotoxicity. Broadly, the HC50 is the concentration that lyses half of the red blood cells. On to `CC(C)CCOc1cccc(-c2ccccc2OCc2cn(C[C@@H](CCCCN)NC(=O)[C@@H](CCCNC(=N)N)n3cc(CC4CCCCC4)nn3)nn2)c1.Cl.Cl`, for which the MIC in the series with Staphylococcus aureus [1] came out at 2 µg/mL; in the series on Staphylococcus aureus [2] it was 2 µg/mL; in the series with Staphylococcus aureus [3], 2 µg/mL; with Enterococcus faecalis [4], 2 µg/mL; with Enterococcus faecalis [5], 8 µg/mL; with Streptococcus pneumoniae it was 1 µg/mL. For the same compound, the minimal inhibitory concentration (MIC) was determined as 2 µg/mL with Escherichia coli [6], 16 µg/mL in the series on Clostridioides difficile [7] and 16 µg/mL in the series on Clostridioides difficile [8]. Further, the MIC80 in the series with Staphylococcus aureus [9] is at most 0.25 µg/mL; in the series on Pseudomonas aeruginosa, 8 µg/mL; in the series with Klebsiella pneumoniae, above 32 µg/mL; in the series with Acinetobacter baumannii it was 4 µg/mL; in the series on Escherichia coli [10] it was 8 µg/mL; with Candida albicans, 32 µg/mL. For the same compound, the MIC80 in the series on Cryptococcus neoformans was above 32 µg/mL. Also, the CC50 at 23 h in series [11] was above 32 µg/mL. Moreover, in [12], the HC50 at 1 h was above 32 µg/mL. The hemolysis at 2 h, 5 microg/ml in [13] was 2.6%. In addition, the hemolysis at 2 h, 50 microg/ml in series [14] was determined as 72.1%. In series [15], the Emax at 23 h was 28%. For the same compound, the hemolysis at 1 h in series [16] came to 38%.

Consider `CC(C)CCOc1cccc(-c2cccc(OCc3cn(C[C@@H](CCCCN)NC(=O)[C@@H](CCCNC(=N)N)n4cc(CC5CCCCC5)nn4)nn3)c2)c1.Cl.Cl`, for which the minimal inhibitory concentration (MIC) in the series on Staphylococcus aureus [1] was determined as 4 µg/mL; in the series with Staphylococcus aureus [2] it was 4 µg/mL; with Staphylococcus aureus [3], 4 µg/mL; in the series with Enterococcus faecalis [4], 4 µg/mL; in the series with Enterococcus faecalis [5], 8 µg/mL; with Streptococcus pneumoniae it was 2 µg/mL. The minimal inhibitory concentration (MIC) is 4 µg/mL in the series with Escherichia coli [6], 16 µg/mL in the series with Clostridioides difficile [7] and 16 µg/mL in the series with Clostridioides difficile [8]. Besides, the MIC80 is at most 0.25 µg/mL in the series with Staphylococcus aureus [9]; 32 µg/mL in the series with Pseudomonas aeruginosa; above 32 µg/mL in the series with Klebsiella pneumoniae; 32 µg/mL with Acinetobacter baumannii; 32 µg/mL in the series with Escherichia coli [10]; 8 µg/mL with Candida albicans. In addition, in the series on Cryptococcus neoformans, the MIC80 is above 32 µg/mL. This compound also displayed a CC50 at 23 h in series [11] of 28.1 µg/mL. Besides, the concentration for 50% haemolysis (HC50) at 1 h in series [12] was above 32 µg/mL. The hemolysis at 2 h, 5 microg/ml in [13] was 3.7%. Besides, in series [14], the hemolysis at 2 h, 50 microg/ml was 76.7%. For the same compound, the Emax at 23 h in [15] turned out to be 55%. Besides, the hemolysis at 1 h in series [16] was 94%.

`CC(C)CCOc1ccccc1-c1ccc(OCc2cn(C[C@@H](CCCCN)NC(=O)[C@@H](CCCNC(=N)N)n3cc(CC4CCCCC4)nn3)nn2)cc1.Cl.Cl`: the MIC was found to be 2 µg/mL in the series on Staphylococcus aureus [1]; 4 µg/mL in the series with Staphylococcus aureus [2]; 4 µg/mL in the series on Staphylococcus aureus [3]; 4 µg/mL with Enterococcus faecalis [4]; 16 µg/mL in the series with Enterococcus faecalis [5]; 1 µg/mL with Streptococcus pneumoniae. For the same compound, the MIC worked out at 8 µg/mL with Escherichia coli [6], 16 µg/mL with Clostridioides difficile [7] and 8 µg/mL in the series on Clostridioides difficile [8]. Besides, the MIC80 was at most 0.25 µg/mL with Staphylococcus aureus [9]; 8 µg/mL with Pseudomonas aeruginosa; 32 µg/mL with Klebsiella pneumoniae; 4 µg/mL in the series on Acinetobacter baumannii; 8 µg/mL with Escherichia coli [10]; 16 µg/mL in the series with Candida albicans. In addition, in the series with Cryptococcus neoformans, the MIC80 is above 32 µg/mL. This compound displayed a cytotoxic concentration (CC50) at 23 h in series [11] above 32 µg/mL. Also, in series [12], the concentration for 50% haemolysis (HC50) at 1 h is above 32 µg/mL. Moreover, the hemolysis at 2 h, 5 microg/ml in series [13] amounted to 2%. In addition, the hemolysis at 2 h, 50 microg/ml in series [14] was 66.4%. For the same compound, the Emax at 23 h in [15] is 40%. Further, the hemolysis at 1 h in series [16] turned out to be 82%.

Turning to `CC(C)CCOc1ccc(-c2cccc(OCc3cn(C[C@@H](CCCCN)NC(=O)[C@@H](CCCNC(=N)N)n4cc(CC5CCCCC5)nn4)nn3)c2)cc1.Cl.Cl`, the MIC came to 4 µg/mL in the series with Staphylococcus aureus [1]; 8 µg/mL in the series with Staphylococcus aureus [2]; 2 µg/mL in the series on Staphylococcus aureus [3]; 4 µg/mL with Enterococcus faecalis [4]; 8 µg/mL in the series with Enterococcus faecalis [5]; 2 µg/mL in the series with Streptococcus pneumoniae. Further, the figures for the MIC in the series on Escherichia coli [6], in the series on Clostridioides difficile [7] and with Clostridioides difficile [8] were 32 µg/mL, 16 µg/mL and 16 µg/mL, respectively. Besides, the MIC80 in the series with Staphylococcus aureus [9] is at most 0.25 µg/mL; in the series on Pseudomonas aeruginosa, 16 µg/mL; with Klebsiella pneumoniae it was 32 µg/mL; with Acinetobacter baumannii it was 32 µg/mL; in the series on Escherichia coli [10] it was 8 µg/mL; with Candida albicans it was 8 µg/mL. For the same compound, in the series with Cryptococcus neoformans, the MIC80 is above 32 µg/mL. The CC50 at 23 h in [11] was above 32 µg/mL. Further, the concentration for 50% haemolysis (HC50) at 1 h in [12] was above 32 µg/mL. The hemolysis at 2 h, 5 microg/ml in series [13] was 2.3%. The hemolysis at 2 h, 50 microg/ml in series [14] worked out at 66.5%. In series [15], the Emax at 23 h came out at 18%. Also, the hemolysis at 1 h in [16] turned out to be 102%.
